Experimental data: PubChem BioAssay (NCI)
Values joined by “and” are separate entries in the source; they are usually repeats but may differ in a detail not shown here. Identical values can stand only once.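 Interpolation was linear, between the two tested concentrations surrounding the appropriate level; five concentrations were tested over 48 hours in 96-well plates. At the GI50, growth is halved. At the TGI there is no net growth.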

Columns and labels:
Assay in all cases: NCI-60 cell line screen, 48 h
OVCAR-8 ovarian = test system: OVCAR-8 ovarian
T-47D breast = test system: T-47D breast
MCF7 breast = test system: MCF7 breast
IGROV1 ovarian = test system: IGROV1 ovarian
M14 melanoma = test system: M14 melanoma
SF-539 CNS = test system: SF-539 CNS
EKVX NSCLC = test system: EKVX NSCLC
HOP-92 NSCLC = test system: HOP-92 NSCLC
HCT-116 colon = test system: HCT-116 colon
RXF 393 renal = test system: RXF 393 renal

Compound | GI50 (OVCAR-8 ovarian) | TGI (OVCAR-8 ovarian) | GI50 (T-47D breast) | TGI (T-47D breast) | GI50 (MCF7 breast) | TGI (MCF7 breast) | GI50 (IGROV1 ovarian) | TGI (IGROV1 ovarian) | GI50 (M14 melanoma) | TGI (M14 melanoma) | GI50 (SF-539 CNS) | TGI (SF-539 CNS) | GI50 (EKVX NSCLC) | TGI (EKVX NSCLC) | GI50 (HOP-92 NSCLC) | TGI (HOP-92 NSCLC) | GI50 (HCT-116 colon) | TGI (HCT-116 colon) | GI50 (RXF 393 renal) | TGI (RXF 393 renal)
CNC(=O)c1ccc(N2CCN(Cc3ccc4nc(C)c(=O)[nH]c4c3F)CC2)c(F)n1 | 58.7 µM | > 100 µM | 53.5 µM | > 100 µM | 65.9 µM | > 100 µM | > 100 µM | > 100 µM | > 100 µM | > 100 µM | 55.4 µM | > 100 µM | 81.2 µM | > 100 µM | 21.3 µM | > 100 µM | 91.4 µM | > 100 µM | 13.1 µM | 62.5 µM
C#CCOc1cccc(-c2ncnc3cc(NC(=O)CCl)ccc23)c1 | 0.168 µM | 6.59 µM | 1.69 µM | 5.02 µM | 0.0764 µM | 1.75 µM | 0.0612 µM | 1.92 µM | 0.66 µM | 2.64 µM | 1.31 µM | 2.77 µM | 2.31 µM | 7.64 µM | 1.42 µM | 3.32 µM | 0.034 µM | 1.48 µM | 1.4 µM | 3.16 µM
CCCC(=O)NC1=C(Cl)C(=O)c2ccccc2C1=O | – | 34.8 µM | – | 8.02 µM | – | 7.39 µM | – | 17.9 µM | – | 13 µM | – | 7.33 µM | – | 16.8 µM | – | 3.22 µM | – | 4.52 µM | – | 6.08 µM
C=C1C(=O)O[C@H]2C[C@@H]1CC/C(C)=C/CC/C(C)=C/CC[C@H]2C | 15.7 µM | 39.3 µM | 25 µM | 51.6 µM | 14.7 µM | 56.7 µM | 18.8 µM | 40 µM | 14.2 µM | 29.3 µM | 15.7 µM | 33.6 µM | 19.7 µM | 42.8 µM | – | – | 7.82 µM | 21.3 µM | 9.67 µM | 27.7 µM
C=C(C)C(=O)O[C@H]1C[C@@]23O[C@@H]2CCC(=C[C@H]2OC(=O)C(=C)[C@H]12)COC3O (stereo not given in full) | – | > 100 µM | – | > 100 µM | – | > 100 µM | – | > 100 µM | – | > 100 µM | – | > 100 µM | – | > 100 µM | – | 53.6 µM | – | 37.5 µM | – | 89.6 µM
[Cl][Hg][Cl] | 21.6 µM | 56.3 µM | 5.18 µM | 30.2 µM | 12.5 µM | > 56 µM | 8.2 µM | 24.8 µM | 16.2 µM | 32.2 µM | 18.3 µM | 33.5 µM | 19.9 µM | 34.6 µM | 17.3 µM | 32.7 µM | 18 µM | 33.4 µM | 18.2 µM | 32.6 µM
O=C(CO[N+](=O)[O-])Nc1ccc(C(=O)/C=C/c2ccc(Cl)cc2)cc1 | 3.24 µM | 14 µM | 3.26 µM | 14.9 µM | 0.666 µM | 6.44 µM | 13.4 µM | 30 µM | 2.05 µM | 4.96 µM | 2.52 µM | 8.81 µM | 15 µM | 74.6 µM | 2.95 µM | 15.2 µM | 0.298 µM | 1.09 µM | 4.82 µM | 17.8 µM
COc1cc(OC)cc(N(CCNC(C)C)c2ccc3ncc(-c4cnn(C)c4)nc3c2)c1 | 4.75 µM | 18.9 µM | 12.7 µM | 30.3 µM | 10.5 µM | 24.3 µM | 3.02 µM | 11.1 µM | 4.45 µM | 18.6 µM | 0.586 µM | 7.25 µM | 13.1 µM | 27 µM | 3.32 µM | 15.5 µM | 4.55 µM | 17 µM | 1.2 µM | 5.16 µM
CCc1cccc(C)c1NC(=O)c1sc2nc3c(cc2c1N)CCCCC3 | 3.72 µM | > 100 µM | 4.65 µM | > 100 µM | 1.86 µM | > 100 µM | 5.13 µM | > 100 µM | 2.53 µM | > 100 µM | 2.29 µM | 8.21 µM | 4.17 µM | > 100 µM | 13.3 µM | 60.3 µM | 3.58 µM | > 100 µM | 1.6 µM | 6.4 µM
COc1cc(C#Cc2ccc(=O)oc2C#Cc2ccccc2)cc(OC)c1OC | 2.93 µM | 10.3 µM | 2.27 µM | 6.22 µM | 1.99 µM | 4.86 µM | 2.18 µM | 5.7 µM | 2.38 µM | 5.98 µM | 3.58 µM | 11.3 µM | 5.32 µM | 13.4 µM | 5.13 µM | 12.4 µM | 2.04 µM | 4.57 µM | 2.21 µM | 4.34 µM
FC(F)(F)c1nc2nc(Cl)c(Cl)nc2n1CCCN1CCOCC1 | – | > 100 µM | – | > 100 µM | – | > 100 µM | – | > 100 µM | – | > 100 µM | – | > 100 µM | – | 50.5 µM | – | > 100 µM | – | > 100 µM | – | 68.1 µM
COC(=O)CCc1c[nH]c2ccc(N(CCCl)CCCl)cc12 | 3.05 µM | > 60.5 µM | 1.16 µM | 16.4 µM | 0.572 µM | 22.9 µM | 6.45 µM | > 57.7 µM | 1.73 µM | 11.5 µM | 0.486 µM | 4.69 µM | 21.8 µM | > 77.7 µM | 2.24 µM | 28.6 µM | 2.18 µM | > 58.9 µM | 1.64 µM | 4.19 µM
CC(=O)OCC1OC(n2c(-c3ccc(Cl)cc3)ccc(C#N)c2=S)C(OC(C)=O)C(OC(C)=O)C1OC(C)=O (stereo not given) | 16.4 µM and 34.9 µM | > 100 µM | – | > 100 µM | – | > 100 µM | 44.3 µM and > 100 µM | > 100 µM | – | > 100 µM | – | 99 µM and > 100 µM | – | > 82.9 µM and 80.1 µM | 3.96 µM and 22.2 µM | 18.8 µM and > 100 µM | – | > 100 µM | – | 36.3 µM and 74.5 µM
Cc1cnc(NC(=O)Nc2cc(Br)c(C)cc2OC[C@@H]2CNCCO2)cn1 | 0.666 µM and 0.664 µM | > 10 µM and 12.8 µM | 2.88 µM and 7.86 µM | > 10 µM and 22.3 µM | 0.431 µM and 0.418 µM | > 10 µM and 6.15 µM | 0.979 µM and 1.36 µM | > 10 µM and 17 µM | 0.338 µM and 0.311 µM | 1.37 µM and 0.999 µM | 0.457 µM and 0.281 µM | 3.87 µM and 0.805 µM | 3.22 µM and 3.24 µM | > 10 µM and 15.9 µM | 0.546 µM and 0.389 µM | > 10 µM and 5.72 µM | 3.09 µM and 3.35 µM | > 10 µM and 13.3 µM | 0.564 µM and 0.219 µM | –
